Experimental data reported in US5789419A, “4-quinolinone derivative or salt thereof” (SS Pharmaceutical Co., Ltd., priority 1994, dated 1998).

System: endothelium-ablated specimen of rat thoracic aorta
Assay: Effect of inhibiting contraction caused by 30 mM K on endothelium-ablated specimen of rat thoracic aorta
Type: cell-based
Settings: 10 min, cumulative application at intervals of 10 minutes, 37° C., 10^-4 M papaverine = 100% relaxation, read-out: median inhibitory concentration (IC50)
Procedure: (Effect of inhibiting contraction caused by 30 mM K on endothelium-ablated specimen of rat thoracic aorta)
A thoracic aorta was enucleated from a rat (weight: 129-492 g) and cut into lengths of 3 mm. Cotton in the form of a paper string was put in a lumen of each of ring specimens, and the inner surface of the ring specimen was rubbed several times with the cotton, thereby ablating an endothelium from the thoracic aorta specimen. This specimen was incubated at 37° C. and suspended in 10 ml of a Krebs-Henseleit solution, into which a mixed gas had been introduced, with a load of 2 g applied thereto. The tension thereof was isometrically recorded in a recorder through an FD transducer and a dynamic strain gage. After at least 60 minutes went on after the suspension, and the sample was stabilized, 10^-7 M noradrenaline was applied several times to the specimen. Under contraction caused by 10^-7 M noradrenaline, 10^-7 M acetylcholine was applied to the specimen. A specimen which manifested no relaxing effect at this time was used in an experiment as an endothelium-ablated specimen. Each of agents (compounds of Compound Numbers shown in Table 20 and Cromakalim) to be tested was cumulatively applied at intervals of 10 minutes from the time 30 mM K^+ had been applied to such a specimen, and the contraction of the specimen had been fixed, thereby calculating a median inhibitory concentration (IC50). Incidentally, 10^-4 M papaverine was applied to confirm 100% relaxing affect. The agents to be tested were dissolved (5×10^-2 M in dimethyl sulfoxide and diluted with purified water before their use.

CC(=O)NN1CC(C)(C)C(=O)c2ccc(S(=O)(=O)C(F)(F)F)cc21 [Compound No. 44, 1-Acetoamino-2,3-dihydro-3,3-dimethyl-7-(trifluoromethyl) sulfonyl-4(1H)-quinolinone]
IC50: 18.8 nM

CCC(=O)NN1CC(C)(C)C(=O)c2ccc(OC(F)(F)F)cc21 [compound 29]
IC50: 104 nM

CC(=O)NN1CC(C)(C)C(=O)c2ccc(C(F)(F)F)cc21 [compound 21]
IC50: 100 nM

CC(=O)NN1CC(C)(C)C(=O)c2ccc(S(=O)(=O)c3ccccc3)cc21 [Compound No. 53, 1-Acetoamino-2,3-dihydro-3,3-dimethyl-7-phenylsulfonyl-4(1H)-quinolinone]
IC50: 83.2 nM

CC1(C)CN(NC(=O)c2cccnc2)c2cc(OC(F)(F)F)ccc2C1=O [compound 30]
IC50: 49.2 nM

CC(=O)NN1CC(C)(C)C(=O)c2ccc(OC(F)(F)F)cc21 [compound 28]
IC50: 48.2 nM

CC1(C)CN(N2CCCC2=O)c2cc(S(=O)(=O)c3ccccc3)ccc2C1=O [Compound No. 63, 2,3-Dihydro-3,3-dimethyl-7-phenylsulfonyl-1-(2-oxopyrrolidin-1-yl)-4(1H)-quinolinone]
IC50: 86.9 nM

CC1(C)Oc2ccc(C#N)cc2[C@@H](N2CCCC2=O)[C@@H]1O (racemic) [Cromakalim, (±)-trans-6-cyano-2,2-dimethyl-4-(2-oxopyrrolidin-1-yl)-3,4-dihydro-2H-1-benzopyran-3-ol, reference compound]
IC50: 130 nM

CC1(C)CN(NC(=O)c2cccnc2)c2cc(C(F)(F)F)ccc2C1=O [compound 23]
IC50: 66.2 nM
